Measurements published in patent publication USRE43712E1, “Methods for assaying for antidepressant therapy markers” (The Board of Trustees of the Uniersity of Illinois, priority 2000, dated 2012).
Marks after values point to notes of the source that are not given here.

Assays:
Gsα [1] = assay: Cellular localization of Gsα in C6-2B cells, immunofluorescence laser scanning confocal microscopy; assay type: cell-based
Gsα [2] = assay: Sequential detergent extraction (Triton X-100 / Triton X-114) of Gsα from C6-2B glioma membranes; assay type: cell-based; settings: C6-2B cells, 10 μM, 3 days; mean ± SEM of 4-5 experiments
Procedure: C6-2B cells (between passages 20 and 40) were grown in 175-cm^2 flasks in Dulbecco's modified Eagle medium, 4.5 g of glucose/L, 10% bovine serum, in a 10% CO2 atmosphere, at 37° C. for 3 days after splitting. […] Male Sprague-Dawley rats weighing 150-200 g were fed ad libitum and maintained in a 12-h light/dark cycle. […] 36:803-838, 1989]. […] Rat cerebral cortex membranes were prepared according to the method of Rasenick et al. [Nature, 294:560-562; 1981].
(§1) Membrane proteins were extracted sequentially from C6-2B or rat synaptic membranes as described [Yan et al., J. Neurochem., 66:1489-1495; 1996]. These membranes were stirred on ice in HEPES (15 mM, pH 7.4) containing 1% Triton X-100 for 60 min followed by centrifugation at 100,000 g for 60 min at 4° C. The supernatant was reserved (Triton X-100 extract), and the resulting pellet was resuspended in Tris (15 mM, pH 7.4) containing 1.4% Triton X-114 and 150 mM NaCl. The solution was stirred for 60 min at 4° C. and centrifuged for 30 min at 100,000 g in the cold. The supernatant was saved (Triton X-114 extract). These supernatants and remaining pellet (remainder) were subjected to sodium dodecyl sulfate (SDS)-polyacrylamide gel electophoresis (PAGE) using 10% gels. All of the extraction buffers contained 1 mM PMSF and 1 mM EGTA.
Rat cortex membrane, C6-2B cell membranes, or Triton extracts of each membrane preparation were subjected to SDS-PAGE followed by electrotransfer to polyvinylidene difluoride (PVDF) membrane. The PVDF membrane was incubated with a phosphate-buffered saline/Tween 20 Buffer (140 mM NaCl, […]. 0.1% Tween 20, pH 7.4) and 3% bovine serum albumin. The membrane was then incubated with polyclonal rabbit antisera against the various G protein subunits [RM (Gsα) or 116 (Gi1, Gi2, Gi3α)] at a 1:25,000 (RM) or 1:5,000 (116) dilution (see below for source of antibodies). […] Immunoreactivity was detected with an enhanced chemiluminescence (ECL) western blot detection system (Amersham) in accord with the manufacturer's instructions. The developed autoradiographs were analyzed by densitometry.
A membrane-enriched fraction was prepared (see Example 1), and membrane proteins were extracted sequentially with Triton X-100 (Tx 100) and Triton X-114 (Tx 114). Equal amounts of these extracts were subjected to SDS-PAGE and transferred to PVDF membrane. The long and short forms of Gsα (GsαL and GsαS) from different fractions were identified by immunodetection.
Experiments were conducted according to the method set forth in Example 1 to assess the effects of different antidepressants on the detergent extraction of Gsα from C6-2B glioma cells.
The ratios of the percentage of Gsα extracted by the two detergents in the treatment versus control groups were compared and are set forth in Table 2 as percentage of control (i.e., each Triton X-100 extract was compared with the untreated Triton X-100 extract; the same was done for Triton X-114 extracts as well as the remainder).

Giα = assay: Detergent extraction of Giα from C6-2B glioma membranes; assay type: cell-based; settings: C6-2B cells, 10 μM, 3 days; FIG. 4
Procedure: as §1, with “All of the extraction buffers contained 1 mM PMSF and 1 mM EGTA.” left out
Rat cortex membrane, C6-2B cell membranes, or Triton extracts of each membrane preparation were subjected to SDS-PAGE followed by electrotransfer to polyvinylidene difluoride (PVDF) membrane. […] Immunoreactivity was detected with an enhanced chemiluminescence (ECL) western blot detection system (Amersham) in accord with the manufacturer's instructions. The developed autoradiographs were analyzed by densitometry.
Experiments were conducted (as described in Example 1) to ascertain the effect of antidepressant therapy on the mobility of Giα from C6-2B glioma cells. […] Immunoreactivity was detected with an ECL western blot detection system.

Gsα [3] = assay: Detergent extraction of Gsα from rat synaptic membrane after chronic antidepressant treatment; assay type: in vivo; settings: short-term treatment (1-day treatment of cells or 1-week treatment of rats)

Compound	Intense Gsα staining at the process tips (Gsα [1]; 3 μM for five days)	Number of cells lacking Gsα in the process tips versus control (Gsα [1]; acute treatment, one day, 10 μM)	GsαL in Triton X-114 extract, % of corresponding value in control group (Gsα [2])	GsαS in Remainder, % of corresponding value in control group (Gsα [2])	GsαS in Triton X-100 extract, % of corresponding value in control group (Gsα [2])	GsαS in Triton X-114 extract, % of corresponding value in control group (Gsα [2])	Migration of Giα to a less hydrophobic membrane fraction (Giα)	Effect of short-term treatment on the parameters examined (Gsα [3])
CNCCCN1c2ccccc2CCc2ccccc21 [Desipramine, desipramine]	do not	not significantly different from the control						
CNCCC(Oc1ccc(C(F)(F)F)cc1)c1ccccc1 (centres unmarked) [Fluoxetine, fluoxetine]			84.4 ± 2.9^b %	99.7 ± 3.1%	215.9 ± 30.9^a %	92.2 ± 1.3^b %	did not migrate to a less hydrophobic membrane fraction	without effect
